{"source": "paper PMC11434354", "about": "“Metabolic and Pharmacokinetic Profiling Studies of N, N-Dimethylaniline-Heliamine in Rats by UHPLC-Q-Orbitrap MS/MS” (Molecules, 2024)", "key": {"[1]": {"test": "Pharmacokinetic study of DH in rats after oral and intravenous administration (non-compartmental analysis)", "format": "in vivo, male Sprague–Dawley (SD) rats", "details": "for MRT last: read-out: MRT0–t; for MRT inf: read-out: MRT0–∞; for half-life: read-out: T1/2 (terminal half-life) (converted)", "method": "The Xinjiang Medical University (Xinjiang, China) provided twelve male Sprague–Dawley (SD) rats (weight 200 ± 20 g). The Animal Experimentation Ethics Committee of Xinjiang Medical University gave its approval to all animal experiments. DH was created using a mixture consisting of 2% ethanol, 8% Kolliphor, and 90% distilled water. Twelve rats were selected randomly and divided into two groups. Before administering the oral dose, the rats were fasted for 12 h but were allowed access to water. Each rat in the oral group was orally given 19.2 mg/kg of DH. Blood samples were collected from their ophthalmic veins at 0, 0.25, 0.5, 1, 1.5, 2, 4, 8, 12, and 24 h for the oral study. In the intravenous group, each rat was given an intravenous tail injection of 1.9 mg/kg of DH. Blood was collected from their ocular veins at 0, 0.1, 0.25, 0.5, 0.75, 1, 1.5, 3.4, 7.5, 12, and 24 h for further analysis. The collected plasma was thereafter subjected to centrifugation (14,000 rpm) for 10 min in a 1.5 mL polyethylene collection tube with EDTA. Following centrifugation, the supernatant was stored in a refrigerator at –80 °C.\nRat plasma samples were assessed for DH using a Thermo Fisher Scientific Q Exactive Plus Orbitrap MS and a Dionnex Ultimate 3000 RSL nano System (Thermo Fisher Scientific, Bremen, Germany). Chromatographic separation was performed with a pre-column (1.7 µm) and an ACQUITY UHPLC BEH C18 column (2.1 × 75 mm, 1.7 µm). The procedure utilized a 10 µL injection volume and was carried out for 5 min at 0.2 mL/min isocratic (70%A (0.1% formic acid in water): 30%B (acetonitrile)). The temperature of the RS autosampler was maintained at 10 °C, and the column was set at 35 °C. Positive electrospray ionization (ESI) and the Parallel Reaction Monitor (PRM) mode were employed to identify DH and the IS. AGC targets were set at 1 × 10^6, the maximum iteration time at 100 ms, the spray voltage at 3.2 kV, the capillary temperature at 320 °C, the S-lens RF level at 55, and 10 and 38 for the IS of the high collision dissociation cell of DH were the MS parameters used. The PRM transitions for DH and IS were 313.19/192.10 (m/z) and 400.18/310.12 (m/z), respectively.\nDissolve PK samples were stored at −80 °C at room temperature. We added 10 µL of 30% acetonitrile water and vortexed it for 3 s. We then added 10 µL of IS and vortexed it for 3 s. Then, 300 µL of acetonitrile was added to the above plasma, vortexed for 1 min, and centrifuged for 7 min. The mixture supernatant was collected and blown dry at 40 °C under nitrogen. Blow-dried samples were re-dissolved in 100 μL of 30% acetonitrile in water and centrifuged for 7 min.\nTwelve male SD rats, weighing […], were used to perform PK studies on DH. SD rats fasted for 12 h before administration, but the water was freely available. Normal drinking and eating resumed four hours after administration. To study the bioavailability and PK parameters of DH, rats were randomly divided into two groups. The dose administered was 1.9 mg/kg for the intravenous group and 19.2 mg/kg for the oral administration group. Oral bioavailability was calculated using Equation (2) as follows:Oral bioavailability (%) = (AUCp.o. × Dosei.v./AUCi.v. × Dosep. o.) × 100%(2)\nThe Q Exactive Plus Orbitrap MS data were acquired using the Thermo Xcalibur 4.2. software (Thermo Fisher Scientific, Waltham, MA, USA). The Qual Browser was used to extract ion chromatograms for screening candidate metabolites with a mass tolerance of 5 ppm and a mass precision of 4 decimals. In addition, MS/MS fragment ions were extracted for structural confirmation of candidate metabolites. The Qual Browser was used for the quantification of DH in rat plasma. Pharmacokinetic parameters were processed using the non-compartmental pharmacokinetic data analysis software program of MaS Studio 1.5.2.14 stable (Shanghai Boca Pharmaceutical Technology Co., Shanghai, China). Finally, the results were described as arithmetic mean ± SD."}, "[2]": {"test": "Long-term storage stability of DH stock solutions", "format": "physicochemical", "method": "Although acetonitrile precipitates most of the protein, plasma samples contain phospholipids, metabolites, etc., that interfere with the detection of DH and IS. Specificity was mainly examined at DH and IS retention times without interference peaks in blank plasma. In addition, samples tested after administration should not show interfering peaks at the DH and IS peak times. The standard curves were made up of 8 nonzero analyte points, and the linearity was tested. The correlation of peak area (analyte/IS) with the labeled plasma concentration was plotted for regression analysis. This analyte was predicted to have a correlation coefficient (r^2) of more than 0.99 with the corresponding standard curve. The relative standard deviation (RSD) and relative error (RE) values were calculated by measuring six repeated QC samples on the same day to evaluate the intra-day precision and accuracy. Inter-day precision and accuracy were characterized by RSD and RE, respectively. The recoveries were determined by examining the ratio of the peak areas of DH before and after extraction. The matrix effect is the ratio of the peak area of DH added to plasma and DH dissolved in the solvent. The stability evaluation should guarantee that the concentration of the analyte remains unchanged throughout the sample preparation and analysis process, as well as during storage. Stability studies include long-term storage stability at −80 °C (1, 7 and 15 days); repeated freeze–thaw stability; autosampler stability; room temperature stability; and long-term storage stability of stock solutions."}, "[3]": {"parameters": "method as in doi:10.37547/TAJMSPR/Volume02Issue07-17", "details": "rats, compared with verapamil; cited from earlier work"}, "[4]": {"parameters": "method as in doi:10.37547/TAJMSPR/Volume02Issue07-17", "details": "cited from earlier work"}, "[5]": {"details": "I.V. 1.9 mg/kg, n = 6, mean ± SD"}, "[6]": {"details": "P.O. 19.2 mg/kg, n = 6, mean ± SD"}, "[7]": {"details": "male, Sprague-Dawley, rat, plasma, iv, I.V. 1.9 mg/kg, n = 6, mean ± SD"}, "[8]": {"details": "male, Sprague-Dawley, rat, plasma, po, P.O. 19.2 mg/kg, n = 6, mean ± SD"}}, "note": "Read-outs that look alike come from different tables or passages of the source.", "data": [{"molecule": "COc1cc2c(cc1OC)C(c1ccc(N(C)C)cc1)NCC2", "note": "(stereo not drawn) [DH, N, N-dimethylaniline-heliamine]", "values": [{"measurement": "AUC0–t", "setting": "[1]; [5]", "result": "439 ± 30.1", "unit": "ng·h/mL"}, {"measurement": "AUC0–∞", "setting": "[1]; [5]", "result": "495 ± 36.4", "unit": "ng·h/mL"}, {"measurement": "Vd (apparent volume of distribution)", "setting": "[1]; I.V. 1.9 mg/kg, n = 6, mean ± SD, 1.9 mg/kg", "result": "15,514.58 ± 2159.74 mL/kg"}, {"measurement": "AUC0–t", "setting": "[1]; [6]", "result": "707 ± 265", "unit": "ng·h/mL"}, {"measurement": "AUC0–∞", "setting": "[1]; [6]", "result": "748 ± 279", "unit": "ng·h/mL"}, {"measurement": "CL (clearance)", "setting": "[1]; [6]", "result": "30,148.65 ± 15,354.27 mL/h/kg"}, {"measurement": "Vd (apparent volume of distribution)", "setting": "[1]; [6]", "result": "126,728.09 ± 56,867.09 mL/kg"}, {"measurement": "Vd", "setting": "[1]; male, Sprague-Dawley, rat, plasma, iv, 1.9 mg/kg, I.V. 1.9 mg/kg, n = 6, mean ± SD, read-out: Vd (apparent volume of distribution)", "result": 15.1, "unit": "L/kg"}, {"measurement": "Cmax", "setting": "[1]; [7]", "result": "183 ± 33.6", "unit": "ng/mL"}, {"measurement": "clearance", "setting": "[1]; male, Sprague-Dawley, rat, plasma, iv, I.V. 1.9 mg/kg, n = 6, mean ± SD, read-out: CL (clearance) (converted)", "result": 64.3, "unit": "mL/min/kg"}, {"measurement": "MRT last", "setting": "[1]; [7]", "result": "2.49 ± 0.33", "unit": "h"}, {"measurement": "MRT inf", "setting": "[1]; [7]", "result": "3.56 ± 0.26", "unit": "h"}, {"measurement": "half-life", "setting": "[1]; [7]", "result": "2.79 ± 0.34", "unit": "h"}, {"measurement": "bioavailability", "setting": "[1]; male, Sprague-Dawley, rat, plasma, oral, P.O. 19.2 mg/kg vs I.V. 1.9 mg/kg, read-out: Fabs (absolute oral bioavailability)", "result": 16.1, "unit": "%"}, {"measurement": "Cmax", "setting": "[1]; [8]", "result": "121 ± 42.4", "unit": "ng/mL"}, {"measurement": "Tmax", "setting": "[1]; [8]", "result": 1.5, "unit": "h"}, {"measurement": "MRT last", "setting": "[1]; [8]", "result": "4.07 ± 0.34", "unit": "h"}, {"measurement": "MRT inf", "setting": "[1]; [8]", "result": "4.76 ± 0.4", "unit": "h"}, {"measurement": "half-life", "setting": "[1]; [8]", "result": "2.96 ± 0.32", "unit": "h"}, {"measurement": "Accuracy, Stock solution", "setting": "[2]; nominal concentration 10 ng/mL", "result": 104.96, "unit": "%"}, {"measurement": "Accuracy, Stock solution", "setting": "[2]; nominal concentration 100 ng/mL", "result": 99.49, "unit": "%"}, {"measurement": "Accuracy, Stock solution", "setting": "[2]; nominal concentration 500 ng/mL", "result": 96.24, "unit": "%"}, {"measurement": "Acute toxicity parameters", "setting": "[3]", "result": "more than six times lower than those of verapamil"}, {"measurement": "antiarrhythmic activity", "setting": "[4]", "result": "promising antiarrhythmic activity"}]}]}
